Data as given in patent publication US20220273765A1, “TOPICAL FORMULATION” (Follicum AB, priority 2019, published 2022).
Like-named read-outs stand apart in the source and are kept apart here. No end group written: not given here.

What was measured:
[1] = tested on: C57BL/6 mice in stable telogen phase; test: Hair growth promotion efficacy in C57BL/6 mouse model by topical route; assay type: in vivo; conditions: 5% solution, 50 μL/cm2 topically twice daily, 4 weeks + 1 week observation
Experimental: C57Bl6 mice in stable telogen phase (age 6-9 weeks) were carefully clipped. Topical formulation of FOL-005 at three different strengths and placebo was applied at the clipped area once daily, 5 days per week until day 26. For comparison Minoxidil was administered to one group twice daily, 5 days per week until day 26.
The present study was conducted to evaluate the hair growth promotion efficacy of FOL-005 in C57BL/6 mouse model by topical route of administration. Male C57BL/6 mice in stable telogen phase (resting phase) of hair growth cycle were used. The hair on the dorsal back of the animals was clipped and the area was treated with FOL-005 topical formulation, placebo formulation or commercially available Minoxidil 5%.
Three formulations of FOL-005 (High dose—0.5%, Medium dose—0.05% and Low dose—0.005%) along with placebo were screened for hair growth promotion efficacy by applying 50 μL/cm2 on the dorsal clipped skin of animals in the respective groups. The application regimen was total of 4 weeks (5 days/week) followed by 1 week of observation period. […] After completion of observation period, it was observed that FOL-005 formulation led to hair growth promotion efficacy in a dose response manner. […] Visual melanogenesis was also observed in the peeled skin of 3/7 animals, 2/7 animals and 1/7 animal in the High, Medium and Low dose respectively. […]

[2] = Solubility of FOL-005 in vehicle excipients and artificial sebum (HPLC); assay type: physicochemical
Experimental: The testing was performed by charging 0.1% (w/w) of FOL-005 together with 99.90% excipient. […] The mixtures were stirred with magnetic stirrer for 2 hours. If particles of FOL-005 remained, the mixture was centrifuged at 14000 rpm or 10000 rpm (artificial sebum) for 5 minutes and the supernatant was withdrawn for analysis. The concentration of FOL-005 was determined by HPLC analysis in all batches.

[3] = sodium salt, in PBS buffer pH 7.4, room temperature

## Nc1cc(N2CCCCC2)nc(N)[n+]1[O-] [Minoxidil]
[1]
  Anagen induction followed by hair growth: 4/5
  Visual melanogenesis in the peeled skin: 4/5

## VDTYDGDISVVYGLR [FOL-005]
[2]; 0.5% Cithrol in paraffin oil, sodium salt, in 0.5% Cithrol in paraffin oil, room temperature, read-out: FOL-005 solubility
  solubility at 2 h: 10 µg/mL
[2]; 10% glucose in water, in 10% Glucose in water, room temperature, read-out: FOL-005 solubility
  solubility at 2 h: > 1010 µg/mL
[2]; 10% glucose solution
  solubility of FOL-005 in 10% glucose solution: above 4.38 % (w/w)
[2]; 10% mannitol in water, in 10% Mannitol in water, room temperature, read-out: FOL-005 solubility
  solubility at 2 h: > 1040 µg/mL
[2]; 10% sucrose in water, in 10% Sucrose in water, room temperature, read-out: FOL-005 solubility
  solubility at 2 h: > 1040 µg/mL
[2]; 30% glucose in water, in 30% Glucose in water, room temperature, read-out: FOL-005 solubility
  solubility at 2 h: > 1070 µg/mL
[2]; 30% sucrose in water, in 30% Sucrose in water, room temperature, read-out: FOL-005 solubility
  solubility at 2 h: > 1040 µg/mL
[2]; PBS buffer, pH 7.4, sodium salt, in PBS buffer pH 7.4, room temperature, read-out: FOL-005 solubility
  solubility at 2 h: > 1000 µg/mL
[2]; artificial sebum, sodium salt, in artificial sebum, 37° C., read-out: FOL-005 solubility
  solubility at 2 h: 270 µg/mL
[2]; in 10% Glucose in water, room temperature
  Observation: soluble
[2]; in 10% Mannitol in water, room temperature
  Observation: soluble
[2]; in 10% Sucrose in water, room temperature
  Observation: soluble
[2]; in 30% Glucose in water, room temperature
  Observation: soluble
[2]; in 30% Sucrose in water, room temperature
  Observation: soluble
[2]; in lactic acid, room temperature
  Observation: soluble
[2]; lactic acid, in lactic acid, room temperature, read-out: FOL-005 solubility
  solubility at 2 h: > 1170 µg/mL
[2]; [3]
  FOL-005 solubility: >980 µg/mL
  Observation: soluble
[2]; sugar solutions of glucose, mannitol and sucrose, sodium salt, sugar solutions of glucose, mannitol and sucrose, room temperature, read-out: solubility in sugar solutions
  solubility at 2 h: > 1000 µg/mL
